According to PubChem BioAssay AID248 (DTP/NCI, 2004):
Where “and” joins values, the source holds several entries; their conditions need not be identical. Equal entries are not always repeated. Inconclusive results and toxic doses are left out. Rule as the data show it: active = T/C of 150% or more; inactive = T/C below 125%.

System: L1210 leukemia ip in BDF1 mice, survival T/C
Experiment: NCI In Vivo Anticancer Drug Screen. Data for tumor model L1210 Leukemia (intraperitoneal) in B6D2F1 (BDF1) mice
Details: endpoint: mean survival time, higher = longer survival
Outline: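 Tumor was transplanted into mice, which were then dosed with test compound or vehicle alone. Survival was recorded for each group, and the treated figure was expressed relative to the control figure.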

Measured: T/C

COC1=C(N)C(=O)c2nc(-c3nc(C(=O)O)c(C)c(-c4ccc(OC)c(OC)c4O)c3N)ccc2C1=O
inactive: dose: 0.02 mg/kg/injection, schedule: Q01DX009 (ip), vehicle: other 86 % of control | dose: 0.05 mg/kg/injection, schedule: Q01DX009 (ip), vehicle: other 94 % of control | dose: 0.05 mg/kg/injection, schedule: Q04DX002 (ip), vehicle: saline 106 % of control | dose: 0.1 mg/kg/injection, schedule: Q01DX Z (ip), vehicle: alkali diluted with CMC 103 % of control and 109 % of control | dose: 0.1 mg/kg/injection, schedule: Q01DX Z (ip), vehicle: water 105 % of control | dose: 0.1 mg/kg/injection, schedule: Q04DX002 (ip), vehicle: saline 120 % of control | dose: 0.12 mg/kg/injection, schedule: Q01DX001 (iv), vehicle: other 102 % of control | dose: 0.12 mg/kg/injection, schedule: Q01DX009 (ip), vehicle: saline 106 % of control | dose: 0.18 mg/kg/injection, schedule: Q01DX001 (ip), vehicle: other 124 % of control | dose: 0.2 mg/kg/injection, schedule: Q01DX009 (ip), vehicle: other 102 % of control | dose: 0.2 mg/kg/injection, schedule: Q01DX Z (ip), vehicle: alkali diluted with CMC 96 % of control and 106 % of control | dose: 0.2 mg/kg/injection, schedule: Q01DX Z (ip), vehicle: water 105 % of control | dose: 0.2 mg/kg/injection, schedule: Q04DX002 (ip), vehicle: saline 113 % of control | dose: 0.25 mg/kg/injection, schedule: Q01DX001 (iv), vehicle: other 114 % of control | dose: 0.25 mg/kg/injection, schedule: Q01DX009 (ip), vehicle: saline 106 % of control and 116 % of control | dose: 0.25 mg/kg/injection, schedule: Q01DX015 (ip), vehicle: water 118 % of control | dose: 0.3 mg/kg/injection, schedule: Q01DX Z (ip), vehicle: water 102 % of control | dose: 0.39 mg/kg/injection, schedule: Q04DX002 (ip), vehicle: saline 110 % of control | dose: 0.4 mg/kg/injection, schedule: Q01DX Z (ip), vehicle: alkali diluted with CMC 104 % of control and 106 % of control | dose: 0.45 mg/kg/injection, schedule: Q01DX Z (ip), vehicle: saline 107 % of control | dose: 0.5 mg/kg/injection, schedule: Q01DX001 (ip), vehicle: carboxymethylcellulose (CMC) 95 % of control | dose: 0.5 mg/kg/injection, schedule: Q01DX001 (iv), vehicle: other 105 % of control | dose: 0.5 mg/kg/injection, schedule: Q01DX009 (ip), vehicle: saline 108 % of control and 86 % of control | dose: 0.5 mg/kg/injection, schedule: Q01DX015 (ip), vehicle: water 101 % of control | dose: 0.66 mg/kg/injection, schedule: Q01DX Z (ip), vehicle: saline 110 % of control | dose: 0.75 mg/kg/injection, schedule: Q01DX001 (ip), vehicle: other 118 % of control | dose: 0.78 mg/kg/injection, schedule: Q04DX002 (ip), vehicle: saline 106 % of control | dose: 0.8 mg/kg/injection, schedule: Q01DX Z (ip), vehicle: alkali diluted with CMC 96 % of control and 91 % of control | dose: 1.0 mg/kg/injection, schedule: Q01DX001 (iv), vehicle: other 91 % of control | dose: 1.5 mg/kg/injection, schedule: Q01DX001 (ip), vehicle: other 121 % of control | dose: 1.5 mg/kg/injection, schedule: Q01DX001 (ip), vehicle: saline 120 % of control | dose: 2.0 mg/kg/injection, schedule: Q01DX001 (ip), vehicle: carboxymethylcellulose (CMC) 88 % of control | dose: 2.5 mg/kg/injection, schedule: Q01DX001 (oral), vehicle: water 105 % of control | dose: 5.0 mg/kg/injection, schedule: Q01DX001 (oral), vehicle: water 98 % of control | dose: 10.0 mg/kg/injection, schedule: Q01DX001 (oral), vehicle: water 88 % of control

O=C(O)/C(=C\c1ccccc1)c1ccccc1
inactive: dose: 100.0 mg/kg/injection, schedule: Q04DX003 (ip), vehicle: saline with Tween-80 100 % of control | dose: 200.0 mg/kg/injection, schedule: Q04DX003 (ip), vehicle: saline with Tween-80 94 % of control | dose: 400.0 mg/kg/injection, schedule: Q04DX003 (ip), vehicle: saline with Tween-80 100 % of control

O=c1nc2n(CCO)c3ccccc3nc-2c(=O)[nH]1
inactive: dose: 25.0 mg/kg/injection, schedule: Q04DX002 (ip), vehicle: saline 100 % of control | dose: 50.0 mg/kg/injection, schedule: Q04DX002 (ip), vehicle: saline 106 % of control | dose: 100.0 mg/kg/injection, schedule: Q04DX002 (ip), vehicle: saline 95 % of control

CCCCCCCCC[n+]1cccc(C#N)c1
inactive: dose: 18.75 mg/kg/injection, schedule: Q01DX009 (ip), vehicle: saline 90 % of control | dose: 37.5 mg/kg/injection, schedule: Q01DX009 (ip), vehicle: saline 88 % of control | dose: 37.5 mg/kg/injection, schedule: Q04DX003 (ip), vehicle: acetone 100 % of control | dose: 75.0 mg/kg/injection, schedule: Q01DX001 (ip), vehicle: saline 100 % of control | dose: 75.0 mg/kg/injection, schedule: Q01DX009 (ip), vehicle: saline 90 % of control | dose: 75.0 mg/kg/injection, schedule: Q04DX003 (ip), vehicle: acetone 97 % of control | dose: 150.0 mg/kg/injection, schedule: Q01DX001 (ip), vehicle: saline 102 % of control | dose: 150.0 mg/kg/injection, schedule: Q04DX003 (ip), vehicle: acetone 105 % of control

C=C(C)C1CCC2(C(=O)OC)CCC3(C)C(CCC4C5(C)CCC(OC6CCCCO6)C(C)(C)C5CCC43C)C12 (stereo not given)
inactive: dose: 25.0 mg/kg/injection, schedule: Q04DX002 (ip), vehicle: saline with Tween-80 86 % of control | dose: 100.0 mg/kg/injection, schedule: Q04DX002 (ip), vehicle: saline with Tween-80 86 % of control

NCCCOC12CC3CC(CC(C3)C1)C2
inactive: dose: 10.0 mg/kg/injection, schedule: Q04DX002 (ip), vehicle: saline 106 % of control | dose: 20.0 mg/kg/injection, schedule: Q04DX002 (ip), vehicle: saline 117 % of control | dose: 40.0 mg/kg/injection, schedule: Q04DX002 (ip), vehicle: saline 102 % of control

C[S+](C)CCCCCC[S+](C)C
inactive: dose: 100.0 mg/kg/injection, schedule: Q04DX003 (ip), vehicle: saline 102 % of control
